Results on four substances are retold here after US20070087364A1, “In vitro erythroid micronucleus assay for genotoxicity” (Massachusetts Institute of Technology, priority 2005, published 2007).

“Also recorded” adds a separate entry of the source.

Assay [1] relates to Lin^− bone marrow cells. In words: PCE growth of Lin− bone marrow by acridine orange histology, fractional-factorial design with regression. In kind it is cell-based, mouse. The following applies: for effect on PCE production / erythropoietic growth, statistical analysis of FIG. 12: primary and secondary effects, untreated cultures. The procedure:
(FIG. 14A) Lin^− bone marrow cells were cultured for 1 day in media containing serum and various combinations of soluble growth factors as listed on the abscissa; these specific 6-factor combinations constitute an orthogonal fractional-factorial design (also represented in Table 1). After 1 day, all soluble erythropoietic growth factors were removed and the cells were cultured for either 2 or 3 additional days in medium with serum. At harvest, the cells were removed from culture and late erythropoietic growth was quantified. For each culture, PCE numbers were calculated by taking the product of the total cell count and the PCE fraction of the population as determined by differential cell counting after staining with acridine orange (>2000 cells scored per culture). Growth calculations were normalized to input cell numbers and are presented as the mean of 3 independent cultures +/− the standard deviation. (FIG. 14B) Culture methods that yielded similar populations at harvest were grouped into subsets (α, β, γ, and δ); growth characteristics for these subsets were quantified and representative micrographs were acquired. […] Cultures exposed to SCF but not Epo (subset γ) expanded approximately 2.5-fold in total cell numbers, but again contained less than 3% PCEs. Cultures exposed to both Epo and SCF (subset β) expanded approximately 13-fold in total cell numbers and yielded populations in which approximately 31% of all cells are PCEs. Finally, cultures exposed to both Epo and Dex but not SCF (subset δ) expanded approximately 4-fold while producing populations in which approximately 51% of all cells are PCEs. Growth calculations are presented as the mean of all cultures in a subset ± the standard deviation. Scale bars: 20 μm.
Table I is an experimental design chart that provides the specific details of the experimental conditions that were examined to generate FIGS. 11, 12, 14 and 16. Specifically, this experimental design is a two-level, minimum-aberration, fractional-factorial design of resolution IV (a 2IV^6-2 minimum-aberration design). The full-factorial design was not performed because an experiment of this size (2^6 cultures for each biological singlet) was logisitically infeasible. This experiment was designed in order to estimate all the main (primary) interactions between the culture response (PCEs produced) and the individual parameters included in the design. In addition, many of the secondary interactions (between the culture response and various parameter-pairs) were estimable by conducting this design (see FIGS. 12 and 16), although some of these secondary interactions were confounded with other secondary interactions. Each condition listed in the design table was tested in biological triplicate, and each triplicate set was cultured under three different atmospheric conditions, to yield a total of nine culture wells per listed condition.
Furthermore, some variability between various Lin^− BM isolations was observed over the course of preliminary flow cytometric studies. Therefore, a definitive study was conducted that used aliquots of a large, well-mixed Lin^− population that was isolated from the combined BM of 15 mice. In this study, flow cytometry was replaced by histological analysis to provide more rigorous quantification of a population's PCE content. This study was designed to estimate the relative stimulatory effect of various, previously-identified erythroid growth factors on culture performance. Specifically a minimum-aberration, fractional-factorial experimental design (a 2IV^6-2 minimum-aberration design) was conducted to estimate all the main (primary) interactions between the culture response, which was PCEs produced (as assessed by histology), and the individual parameters included in the design (see Table I, and FIGS. 11, 12, 14 and 16). […]

Assay [2] has as its system Lin^− bone marrow cells. Description: erythropoietic growth of Lin− bone marrow quantified by flow cytometry (Ter-119/CD71) and total cell counts. The assay is classed as cell-based, mouse. The following applies: for effect on erythropoietic growth (erythropoietic flow cytometry), in words: preliminary flow cytometric studies, Lin− BM from C57BL/6J mice. The procedure:
FIG. 13 is a bar graph of data obtained from experiments performed to determined the effect of Epo on the erythropoietic growth of Lin− bone marrow cells. Lin^− bone marrow cells were cultured for 1 day in media containing serum along with Epo at variable concentrations. Epo was removed from the culture media at the end of 1 day, and culture was continued for 2 more days in media with serum. At the end of the third day, the resulting populations were removed from culture and erythropoietic growth was quantified as the product of total cell counts and flow cytometric region fractions. Specifically, erythroid-specific growth at two late stages was calculated for each culture by taking the product of the total cell count and the fraction of the population found to have the indicated surface phenotype (determined by flow cytometry). These erythroid growth values were then normalized to the number of Lin^− cells seeded.
Studies were conducted by stimulating Lin^− mouse BM with specifically defined media formulations for 24 hours before replacing the medium to a minimal erythroid-differentiation medium (EDM) and culturing for an additional 2-3 days. This EDM contains 20% FBS, 2 mM L-glutamine, and 0.1 mM β-mercaptoethanol in IMDM, whereas the “Day 1” medium consists of IMDM with 15% FBS, 2 mM L-glutamine, 0.1 mM β-mercaptoethanol, 1% BSA, 200 μg holo-transferrin, 10 μg/mL insulin as well as further supplements (some specific media formulations listed in Table I). Upon harvest, the number of late-stage erythroid cells and enucleated erythrocytes produced over the culture period was analyzed. […] Although the most relevant endpoint for these cultures is PCEs-produced per primary BM cell, the number of R4 and R5 cells in the post-culture population, as measured by flow ctyometry, provided a reasonable metric of PCE content for early screening studies. More rigorous quantification, via histological analysis, was then employed in a more detailed analysis to generate FIGS. 11, 12, 14 and 16.
As shown above, short-term erythropoietic culture can be used to detect genotoxic exposure. Quantitative studies on the erythropoietic growth of Lin^− BM after stimulus with physiologic erythropoietic factors were used to further improve the culture methodology and thus increase the potential throughput of the in vitro erythroid MN assay described here. Initially, flow cytometry was used to define late-erythroid cells by subdividing the Ter-119^+ population based on CD71 expression (regions shown in FIG. 4) to estimate the fraction of a culture that acquired late-erythroid surface markers. The products of flow cytometric region statistics and total cell counts were calculated and then normalized to input cell numbers to quantify erythropoietic growth in a culture.
Table II. in vitro erythroid growth is modulated by physiologic erythropoietic stimuli. The culture conditions listed on the left-hand side of the table specify the environment in which a growth measurement was made. All soluble growth factors used in these experiments were removed from culture after 1 day. An X in this first section of the table indicates the variable parameter found to have a significant erythropoietic growth-effect. The measured effect of that parameter on erythropoietic growth is then given on the right-hand side of the table. In this right-hand section of the table, the first item listed is the defining surface phenotype of the erythropoietic population. […] Finally, the level of significance (P value) is given. Note that the first 4 entries to this table were taken from FIG. 13; other entries were obtained from similar figures. P values were determined by the two-tailed t test, except for the 3 italicized P values, which were determined using the one-tailed t test.
(In general: A flow cytometer gives signals particle by particle.)

[3] abbreviates: complete multi-linear regression model (n3=27), parameters scaled 0 to 1.
[4] abbreviates: reduced multi-linear regression model (n3=17), FIG. 16.

Turning to “IGF-I: Insulin-like Growth Factor I (R&D systems)”, the figures for the “Scaled Estimate (model parameter, PCE growth)” value (“Scaled Estimate” below) in the assay on Lin^− bone marrow cells [1] (setting [3]) and in the assay on Lin^− bone marrow cells [1] (setting [4]) were −0.231 and −0.200, respectively. Besides, the “effect on erythropoietic growth (erythropoietic flow cytometry), in words” value with Lin^− bone marrow cells [2] was “had an effect on erythroid cell numbers”.
On to “SCF: stem cell factor (R&D systems), soluble erythropoietic growth factor”, for which the entries for the “Scaled Estimate” value in the assay with Lin^− bone marrow cells [1] (setting [3]) and in the assay with Lin^− bone marrow cells [1] (setting [4]) were 0.166 and 0.138, respectively. In the assay on Lin^− bone marrow cells [1] (growth factors present for 1 day, then 2 or 3 additional days, acridine orange differential counts (FIG. 14B)), the “PCEs among all cells of the harvested population” value is recorded as “less than 3%”. Further, the “expansion in total cell numbers” value in the assay with Lin^− bone marrow cells [1] (growth factors present for 1 day, then 2 or 3 additional days, mean of all cultures in a subset (FIG. 14B)) is “approximately 2.5 fold”. The “effect on PCE production / erythropoietic growth, statistical analysis of FIG. 12” value in the assay on Lin^− bone marrow cells [1] is recorded as “major factors influencing erythropoietic growth; also recorded: next largest effects”. The “Avg Growth +/− SD” value in the assay with Lin^− bone marrow cells [2] ([SCF] = 1 ng/mL, Ter-119+ CD71+, Epo 5 U/mL, 72 h, 5% CO2, 20% O2, Fn 2, Ins 10) is reported as 0.897 +/− 0.053 per Lin^− cell seeded; in the assay on Lin^− bone marrow cells [2] ([SCF] = 1 ng/mL, Ter-119+ CD71−, Epo 5 U/mL, 72 h, 5% CO2, 20% O2, Fn 2, Ins 10), 0.275 +/− 0.026 per Lin^− cell seeded; with Lin^− bone marrow cells [2] ([SCF] = 1 ng/mL, Ter-119+ CD71−, Epo 5 U/mL, 96 h, 5% CO2, 20% O2, Fn 2, Ins 10), 0.372 +/− 0.052 per Lin^− cell seeded; in the assay with Lin^− bone marrow cells [2] ([SCF] = 10 ng/mL, Ter-119+ CD71+, Epo 3.5 U/mL, 72 h, 5% CO2, 20% O2, Fn 2, Ins 10) it was 1.512 +/− 0.100 per Lin^− cell seeded; in the assay on Lin^− bone marrow cells [2] ([SCF] = 10 ng/mL, Ter-119+ CD71+, Epo 5 U/mL, 72 h, 5% CO2, 20% O2, Fn 2, Ins 10) it was 1.448 +/− 0.155 per Lin^− cell seeded; in the assay with Lin^− bone marrow cells [2] ([SCF] = 10 ng/mL, Ter-119+ CD71−, Epo 3.5 U/mL, 72 h, 5% CO2, 20% O2, Fn 2, Ins 10), 0.202 +/− 0.023 per Lin^− cell seeded. The “Avg Growth +/− SD” value with Lin^− bone marrow cells [2] ([SCF] = 10 ng/mL, Ter-119+ CD71−, Epo 5 U/mL, 96 h, 5% CO2, 20% O2, Fn 2, Ins 10) was 0.608 +/− 0.081 per Lin^− cell seeded; in the assay on Lin^− bone marrow cells [2] ([SCF] = 100 ng/mL, Ter-119+ CD71+, Epo 5 U/mL, 72 h, 5% CO2, 20% O2, Fn 2, Ins 10) it was 1.929 +/− 0.154 per Lin^− cell seeded; in the assay on Lin^− bone marrow cells [2] ([SCF] = 100 ng/mL, Ter-119+ CD71−, Epo 5 U/mL, 72 h, 5% CO2, 20% O2, Fn 2, Ins 10), 0.369 +/− 0.041 per Lin^− cell seeded. Also, in the assay on Lin^− bone marrow cells [2], the “effect on erythropoietic growth (erythropoietic flow cytometry), in words” value was “did induce increasing erythropoietic growth up to the maximum concentration tested”.
With “Epo: erythropoietin (Amgen), essential component of the erythropoietic media formulation”, the “relative size of growth effects by multi-linear regression, in words” value in the assay with Lin^− bone marrow cells [1] (FIG. 16) is on record as “largest eyrthropoietic growth effect”. The “Scaled Estimate” value is reported as 3.136 in the assay with Lin^− bone marrow cells [1] (setting [3]) and 3.130 with Lin^− bone marrow cells [1] (setting [4]). For the same substance, the “effect on PCE production / erythropoietic growth, statistical analysis of FIG. 12” value in the assay with Lin^− bone marrow cells [1] is “major factors influencing erythropoietic growth; also recorded: the largest, and most statistically-significant, effect”. In addition, the “Avg Growth +/− SD” value was 0.141 +/− 0.019 per Lin^− cell seeded in the assay with Lin^− bone marrow cells [2] ([Epo] = 2 U/mL (low-growth comparison), Ter-119+ CD71−, SCF 0, 72 h, 5% CO2, 20% O2, Fn 2, Dex 0, Ins 10, IGF-I 0); 0.307 +/− 0.022 per Lin^− cell seeded in the assay on Lin^− bone marrow cells [2] ([Epo] = 5 U/mL, Ter-119+ CD71−, SCF 0, 72 h, 5% CO2, 20% O2, Fn 2 μg/sq cm, Dex 0, Ins 10 μg/mL, IGF-I 0); 0.380 +/− 0.050 per Lin^− cell seeded with Lin^− bone marrow cells [2] ([Epo] = 10 U/mL, Ter-119+ CD71−, SCF 0, 72 h, 5% CO2, 20% O2, Fn 2, Dex 0, Ins 10, IGF-I 0); 0.312 +/− 0.030 per Lin^− cell seeded with Lin^− bone marrow cells [2] ([Epo] = 50 U/mL, Ter-119+ CD71−, SCF 0, 72 h, 5% CO2, 20% O2, Fn 2, Dex 0, Ins 10, IGF-I 0); 0.314 +/− 0.019 per Lin^− cell seeded in the assay on Lin^− bone marrow cells [2] ([Epo] = 500 U/mL, Ter-119+ CD71−, SCF 0, 72 h, 5% CO2, 20% O2, Fn 2, Dex 0, Ins 10, IGF-I 0). The “level at which the erythropoietic stimulatory effect reached a maximum” value in the assay on Lin^− bone marrow cells [2] (cultured Lin− BM, Epo present for first day) is on record as “approximately 10 U/mL”.
Regarding Ins: recombinant human insulin (Sigma), the “Avg Growth +/− SD” value is 1.743 +/− 0.107 per Lin^− cell seeded in the assay on Lin^− bone marrow cells [2] ([Ins] = 10 μg/mL, Ter-119+ CD71+, Epo 5 U/mL, SCF 0, 72 h, 5% CO2, 20% O2, Fn 0); 0.382 +/− 0.008 per Lin^− cell seeded in the assay on Lin^− bone marrow cells [2] ([Ins] = 10 μg/mL, Ter-119+ CD71−, Epo 5 U/mL, SCF 0, 72 h, 5% CO2, 20% O2, Fn 0); 2.096 +/− 0.121 per Lin^− cell seeded in the assay with Lin^− bone marrow cells [2] ([Ins] = 100 μg/mL, Ter-119+ CD71+, Epo 5 U/mL, SCF 0, 72 h, 5% CO2, 20% O2, Fn 0); 0.427 +/− 0.015 per Lin^− cell seeded in the assay on Lin^− bone marrow cells [2] ([Ins] = 100 μg/mL, Ter-119+ CD71−, Epo 5 U/mL, SCF 0, 72 h, 5% CO2, 20% O2, Fn 0).
